Test results as given in patent publication US4345938A, “Herbicidal 2-haloacetanilides” (Monsanto Company, priority 1980, dated 1982).
Read-outs that look alike come from different tables or passages of the source.

How the values were obtained:
Type in all cases: in vivo
Sagittaria trifolia = experiment: Field transplant rice test, applied 0 DAT, ST; settings: 0 h, read-out: Percent Inhibition, ST; for inhibition at 375 g/ha: 0.375 Kg/Ha; for inhibition at 750 g/ha: 0.75 Kg/Ha; for inhibition at 1500 g/ha: 1.5 Kg/Ha; for inhibition at 3000 g/ha: 3.0 Kg/Ha
Procedure: (§1) The test data in Table III for all compounds was obtained under identical test conditions. The weeds used in the tests herein have the following abbreviations in the tables: Echinochloa crus-galli (EC), Monochloria vaginalis (MV), Cyperus Serotinus (CS), Eleocharis Kuroguwai (EK) and Sagittaria trifolia (ST).
(§2) In further comparative tests, a preferred compound of this invention (Example 1) was tested in the field with prior art Compounds A-D. These tests were conducted under conditions reflecting herbicide application times generally favorable to all herbicides in the test. The timing of application of herbicides to transplant rice is very important, whether, as in some instances, prior to transplanting the rice; in other instances, at the time of transplanting or else after transplanting. Application times are conventionally referred to as "days before transplant" (DBT) or "days after transplant" ("DAT"). The field test data in Table IV was obtained from a test in which the herbicides were applied at the time of transplant, i.e., "0 DAT", with observations being made weekly up to six weeks after transplant ("WAT") beginning at two weeks after transplant; for illustrative and representative purposes, only the early, middle and late period observations, i.e., 2 WAT, 4 WAT and 6 WAT, are shown in Table IV. The data in Table IV is for rates of application common to all herbicides in the test, i.e., from 3.0 kg/ha (2.67 lb/A) down to 0.375 kg/ha (0.34 lb/A). All herbicides were applied at their actual or expected use rates, i.e., as granules containing 2.5% by weight herbicide for the compound of Example 1, Compounds B, C and D and 5.0% by weight for Compound A.

Rice [1] = experiment: Field transplant rice test, applied 9 DAT, rice injury; settings: Oryza sativa, 216 h, read-out: Percent Inhibition, Rice; for inhibition at 375 g/ha: 0.375 Kg/Ha; for inhibition at 750 g/ha: 0.75 Kg/Ha; for inhibition at 1500 g/ha: 1.5 Kg/Ha; for inhibition at 3000 g/ha: 3.0 Kg/Ha
Procedure: as §2
(§3) In Table V are presented field data showing the relative performance of the compound of Example 1 and Compounds A-D applied 9 DAT, with observations being made weekly from 3 WAT to 7 WAT; again, for illustrative and representative purposes, only the early, middle and late period observations are reported in Table V, the herbicide rates and concentrations of active ingredients the same as is shown in Table IV.

Cyperus serotinus [2] = experiment: Field transplant rice test, applied 9 DAT, CS; settings: for inhibition at 375 g/ha / inhibition at 750 g/ha / inhibition at 1500 g/ha / inhibition at 3000 g/ha: Cyperus serotinus, 216 h, read-out: Percent Inhibition, CS; for inhibition at 375 g/ha: 0.375 Kg/Ha; for inhibition at 750 g/ha: 0.75 Kg/Ha; for inhibition at 1500 g/ha: 1.5 Kg/Ha; for inhibition at 3000 g/ha: 3.0 Kg/Ha
Description: In the discussion of data below, occasional reference is made to herbicide application rates symbolized as "GR15 " and "GR85 "; these rates are given in kilograms per hectare (kg/ha) which are convertible into pounds per acre (lbs/A) by dividing the kg/ha rate by 1.12.
A further guide to the effectiveness of a chemical as a selective herbicide is the "selectivity factor" ("SF") for a herbicide in given crops and weeds. The selectivity factor is a measure of the relative degree of crop safety and weed injury and is expressed in terms of the GR15 /GR85 ratio, i.e., the GR15 rate for the crop divided by the GR85 rate for the weed, both rates in kg/ha (lb/A.)
as §1, §2, §3

Cyperus serotinus [3] = experiment: Field transplant rice test, applied 0 DAT, CS; settings: 0 h, read-out: Percent Inhibition, CS; for inhibition at 375 g/ha: 0.375 Kg/Ha; for inhibition at 750 g/ha: 0.75 Kg/Ha; for inhibition at 1500 g/ha: 1.5 Kg/Ha; for inhibition at 3000 g/ha: 3.0 Kg/Ha
Procedure: as §1, §2

Rice [4] = experiment: Field transplant rice test, applied 0 DAT, rice injury; settings: Oryza sativa, 0 h, read-out: Percent Inhibition, Rice; for inhibition at 375 g/ha: 0.375 Kg/Ha; for inhibition at 750 g/ha: 0.75 Kg/Ha; for inhibition at 1500 g/ha: 1.5 Kg/Ha; for inhibition at 3000 g/ha: 3.0 Kg/Ha
Procedure: as §2

## CCCCOCCN(C(=O)CCl)c1c(CC)cccc1CC [Compound B, 2',6'-diethyl-N-(n-butoxyethyl)-2-chloroacetanilide]
Sagittaria trifolia; 2 WAT
  inhibition at 375 g/ha: 27%
  inhibition at 750 g/ha: 27%
  inhibition at 1500 g/ha: 62%
  inhibition at 3000 g/ha: 32%
Sagittaria trifolia; 4 WAT
  inhibition at 375 g/ha: 10%
  inhibition at 750 g/ha: 15%
  inhibition at 1500 g/ha: 12%
  inhibition at 3000 g/ha: 30%
Sagittaria trifolia; 6 WAT
  inhibition at 375 g/ha: 5%
  inhibition at 750 g/ha: 7%
  inhibition at 1500 g/ha: 7%
  inhibition at 3000 g/ha: 13%
Rice [1]; 3 WAT
  inhibition at 375 g/ha: 12%
  inhibition at 750 g/ha: 12%
  inhibition at 1500 g/ha: 10%
  inhibition at 3000 g/ha: 12%
Rice [1]; 5 WAT
  inhibition at 375 g/ha: 0%
  inhibition at 750 g/ha: 5%
  inhibition at 1500 g/ha: 2%
  inhibition at 3000 g/ha: 5%
Rice [1]; 7 WAT
  inhibition at 375 g/ha: 5%
  inhibition at 750 g/ha: 3%
  inhibition at 1500 g/ha: 5%
  inhibition at 3000 g/ha: 2%
Cyperus serotinus [2]; 3 WAT
  inhibition at 375 g/ha: 93%
  inhibition at 750 g/ha: 78%
  inhibition at 1500 g/ha: 87%
  inhibition at 3000 g/ha: 75%
Cyperus serotinus [2]; 5 WAT
  inhibition at 375 g/ha: 100%
  inhibition at 750 g/ha: 67%
  inhibition at 1500 g/ha: 85%
  inhibition at 3000 g/ha: 72%
Cyperus serotinus [2]; 7 WAT
  inhibition at 375 g/ha: 77%
  inhibition at 750 g/ha: 67%
  inhibition at 1500 g/ha: 67%
  inhibition at 3000 g/ha: 65%
Cyperus serotinus [2]; between 3 WAT and 7 WAT
  selectivity factor (GR15/GR85), CS in transplant rice: 1
Cyperus serotinus [3]; 2 WAT
  inhibition at 375 g/ha: 62%
  inhibition at 750 g/ha: 70%
  inhibition at 1500 g/ha: 82%
  inhibition at 3000 g/ha: 72%
Cyperus serotinus [3]; 4 WAT
  inhibition at 375 g/ha: 55%
  inhibition at 750 g/ha: 53%
  inhibition at 1500 g/ha: 83%
  inhibition at 3000 g/ha: 62%
Cyperus serotinus [3]; 6 WAT
  inhibition at 375 g/ha: 3%
  inhibition at 750 g/ha: 12%
  inhibition at 1500 g/ha: 45%
  inhibition at 3000 g/ha: 37%
Rice [4]; 2 WAT
  inhibition at 375 g/ha: 7%
  inhibition at 750 g/ha: 3%
  inhibition at 1500 g/ha: 10%
  inhibition at 3000 g/ha: 7%
Rice [4]; 4 WAT
  inhibition at 375 g/ha: 3%
  inhibition at 750 g/ha: 2%
  inhibition at 1500 g/ha: 3%
  inhibition at 3000 g/ha: 2%
Rice [4]; 6 WAT
  inhibition at 375 g/ha: 7%
  inhibition at 750 g/ha: 3%
  inhibition at 1500 g/ha: 0%
  inhibition at 3000 g/ha: 3%
